Measured values taken from patent publication US9567320B2, “Pyridazinone-amides derivatives” (Merck Patent GmbH, priority 2013, dated 2017).

Key:
IRAK4 = IRAK4 (Homo sapiens (Human), UniProt Q9NWZ3); assay: IRAK4 enzymatic assay; assay type: biochemical; details: human recombinant His-TEV-IRAK4, ATP 2 μM, STK1-biotin peptide, FlashPlate
Procedure: IRAK4 is a human purified recombinant enzyme (His-TEV-IRAK1 (194-712)
IRAK4 hydrolyses ATP, autophosphorylates and phosphorylates a Serine/Threonine generic peptidic substrate (STK: 61ST1BLC from CisBio International based in Bagnols/Cèze FR).
Measurement of IRAK-4 inhibition is performed in streptavidin coated 384 well FlashPlate (PerkinElmer #SMP410A). His-TEV-IRAK4 (20 ng/well), ATP (2 μM, [^33P]ATP 0.25 μCi/well), STK1-biotin peptide (300 nM) and compounds in DMSO (range of concentrations from 20 μM to 1 nM) or controls (2% DMSO) are incubated for 3 hours at 30° C. in assay buffer: Hepes pH7.0 50 mM, Fatty acid-free BSA 0.1%, Dithiothreitol DTT 2 mM, MgCl2 10 mM, EGTA 0.5 mM, Tween-20 0.01%, MnCl2 5 mM. Kinase reaction is stopped by addition of EDTA. Supernatant is discarded, plates are washed three times with 150 mM NaCl and radioactivity is then measured in a Microbeta Trilux reader.

IRAK1 = IRAK1 (Homo sapiens (Human), UniProt P51617); assay: IRAK1 enzymatic assay; assay type: biochemical; details: human recombinant His-TEV-IRAK1, ATP 1 μM, FlashPlate
Chain of IRAK1 (P51617 194-712): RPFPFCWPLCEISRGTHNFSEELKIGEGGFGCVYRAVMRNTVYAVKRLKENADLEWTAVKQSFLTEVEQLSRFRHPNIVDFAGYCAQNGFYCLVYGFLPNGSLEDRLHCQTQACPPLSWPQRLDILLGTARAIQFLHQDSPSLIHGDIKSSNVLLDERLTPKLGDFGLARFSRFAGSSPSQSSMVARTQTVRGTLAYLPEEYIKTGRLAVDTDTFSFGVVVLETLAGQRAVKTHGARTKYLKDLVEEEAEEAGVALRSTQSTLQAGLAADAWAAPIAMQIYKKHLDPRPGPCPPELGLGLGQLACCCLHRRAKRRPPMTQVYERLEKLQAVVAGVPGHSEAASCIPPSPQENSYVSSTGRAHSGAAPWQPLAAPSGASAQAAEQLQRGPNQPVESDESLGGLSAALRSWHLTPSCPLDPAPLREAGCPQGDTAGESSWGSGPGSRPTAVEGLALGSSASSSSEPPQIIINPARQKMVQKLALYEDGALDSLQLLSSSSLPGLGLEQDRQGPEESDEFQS
Procedure: IRAK1 is a human purified recombinant enzyme (His-TEV-IRAK1 (194-712)) In this assay, IRAK-1 hydrolyses ATP and autophosphorylates.
Measurement of IRAK-1 inhibition is performed in streptavidin coated 384 well FlashPlate (PerkinElmer #SMP410A).
His-TEV-IRAK-1 (15 ng/well), ATP (1 μM, [^33P]ATP 0.25 μCi/well) and compounds in DMSO (range of concentrations from 20 μM to 1 nM) or controls (2% DMSO) are incubated for 3 hours at 30° C. in assay buffer: Hepes pH7.0 50 mM, Fatty acid-free BSA 0.1%, Dithiothreitol DTT 2 mM, MgCl2 10 mM, EGTA 0.5 mM, Triton-X-100 0.01%. Kinase reaction is stopped by addition of EDTA. Supernatant is discarded, plates are washed three times with 150 mM NaCl and radioactivity is then measured in a Microbeta Trilux reader.

Chain of IRAK4 (Q9NWZ3 whole entry): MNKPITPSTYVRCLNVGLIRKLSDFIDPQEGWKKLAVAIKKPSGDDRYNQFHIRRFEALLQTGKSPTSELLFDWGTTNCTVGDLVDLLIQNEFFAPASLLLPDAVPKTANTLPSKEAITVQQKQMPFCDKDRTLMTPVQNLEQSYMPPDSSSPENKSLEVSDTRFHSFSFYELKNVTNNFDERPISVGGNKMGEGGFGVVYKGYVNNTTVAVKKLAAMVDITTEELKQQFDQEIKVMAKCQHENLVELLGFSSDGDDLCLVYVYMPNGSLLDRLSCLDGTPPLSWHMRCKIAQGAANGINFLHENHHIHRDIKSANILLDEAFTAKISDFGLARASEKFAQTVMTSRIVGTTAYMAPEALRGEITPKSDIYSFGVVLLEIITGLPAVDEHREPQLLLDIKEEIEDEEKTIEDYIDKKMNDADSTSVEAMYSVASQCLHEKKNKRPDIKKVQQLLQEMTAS

IC50 (IRAK4) [nM] | IC50 (IRAK1) [nM] | Structure (SMILES)
100 to 1000 | – | Cc1ccncc1-c1ccc(=O)n(Cc2cccc(C(=O)Nc3nc4ccccc4[nH]3)c2)n1 [Example 12, N-(1H-benzo[d]imidazol-2-yl)-3-((3-(4-methylpyridin-3-yl)-6-oxopyridazin-1(6H)-yl)methyl)benzamide]
100 to 1000 | 100 to 1000 | Cc1cc(-c2ccc(=O)n(Cc3cccc(C(=O)Nc4nc5ccccc5[nH]4)c3)n2)cnn1 [Example 13, N-(1H-benzo[d]imidazol-2-yl)-3-((3-(6-methylpyridazin-4-yl)-6-oxopyridazin-1(6H)-yl)methyl)benzamide]
1000 to 5000 | – | CN(C)Cc1cncc(-c2ccc(=O)n(Cc3cccc(C(=O)Nc4nc5ccccc5[nH]4)c3)n2)c1 [Example 14, N-(1H-benzo[d]imidazol-2-yl)-3-((3-(5-((dimethylamino)methyl)pyridin-3-yl)-6-oxopyridazin-1(6H)-yl)methyl)benzamide]
< 100 | 100 to 1000 | COc1cc2nc(NC(=O)c3cccc(Cn4nc(-c5cccnc5)ccc4=O)c3)[nH]c2cc1OC [Example 15, N-(5,6-dimethoxy-1H-benzo[d]imidazol-2-yl)-3-((6-oxo-3-(pyridin-3-yl)pyridazin-1(6H)-yl)methyl)benzamide]
100 to 1000 | < 100 | COc1ccc2[nH]c(NC(=O)c3cccc(Cn4nc(-c5cccnc5)ccc4=O)c3)nc2c1 [Example 16, N-(5-methoxy-1H-benzo[d]imidazol-2-yl)-3-((6-oxo-3-(pyridin-3-yl)pyridazin-1(6H)-yl)methyl)benzamide]
< 100 | < 100 | O=C(Nc1nc2ccccc2[nH]1)c1cccc(Cn2nc(-c3cncc(CO)c3)ccc2=O)c1 [Example 17, N-(1H-Benzoimidazol-2-yl)-3-[3-(5-hydroxymethyl-pyridin-3-yl)-6-oxo-6H-pyridazin-1-ylmethyl]-benzamide]

More lines, now with the values behind:

Structure (SMILES) | IC50 (IRAK4) [nM] | IC50 (IRAK1) [nM]
CC(C)(C)C(=O)Oc1ccc2[nH]c(NC(=O)c3cccc(Cn4nc(-c5cccnc5)ccc4=O)c3)nc2c1 [Example 1, 2,2-Dimethyl-propionic acid 2-[3-(6-oxo-3-pyridin-3-yl-6H-pyridazin-1-ylmethyl)-benzoylamino]-1H-benzoimidazol-5-yl ester] | < 100 | 100 to 1000
O=C(Nc1nc2ccccc2[nH]1)c1cccc(Cn2nc(-c3cccnc3)ccc2=O)c1 [Example 2, N-(1H-Benzoimidazol-2-yl)-3-(6-oxo-3-pyridin-3-yl-6H-pyridazin-1-ylmethyl)-benzamide] | 100 to 1000 | < 100
Cn1c(NC(=O)c2cccc(Cn3nc(-c4cccnc4)ccc3=O)c2)nc2ccccc21 [Example 3, N-(1-Methyl-1H-benzoimidazol-2-yl)-3-(6-oxo-3-pyridin-3-yl-6H-pyridazin-1-ylmethyl)-benzamide] | 1000 to 5000 | –
COC(=O)c1ccc2[nH]c(NC(=O)c3cccc(Cn4nc(-c5cccnc5)ccc4=O)c3)nc2c1 [Example 4, 2-[3-(6-Oxo-3-pyridin-3-yl-6H-pyridazin-1-ylmethyl)-benzoylamino]-1H-benzoimidazole-5-carboxylic acid methyl ester] | 1000 to 5000 | –
O=C(Nc1nc2cc(CO)ccc2[nH]1)c1cccc(Cn2nc(-c3cccnc3)ccc2=O)c1 [Example 5, N-(5-Hydroxymethyl-1H-benzoimidazol-2-yl)-3-(6-oxo-3-pyridin-3-yl-6H-pyridazin-1-ylmethyl)-benzamide] | < 100 | < 100
CN(C)C(=O)Cc1ccc2[nH]c(NC(=O)c3cccc(Cn4nc(-c5cccnc5)ccc4=O)c3)nc2c1 [Example 6, N-(5-Dimethylcarbamoylmethyl-1H-benzoimidazol-2-yl)-3-(6-oxo-3-pyridin-3-yl-6H-pyridazin-1-ylmethyl)-benzamide] | < 100 | < 100
O=C(Nc1nc2ccccc2[nH]1)c1cccc(Cn2nc(-c3ccc(CO)nc3)ccc2=O)c1 [Example 7, N-(1H-Benzoimidazol-2-yl)-3-[3-(6-hydroxymethyl-pyridin-3-yl)-6-oxo-6H-pyridazin-1-ylmethyl]-benzamide] | < 100 | –
O=C(Nc1nc2ccccc2[nH]1)c1cccc(Cn2nc(-c3cncnc3)ccc2=O)c1 [Example 8, N-(1H-Benzoimidazol-2-yl)-3-(6-oxo-3-pyrimidin-5-yl-6H-pyridazin-1-ylmethyl)-benzamide] | 100 to 1000 | 100 to 1000
Nc1ccc(-c2ccc(=O)n(Cc3cccc(C(=O)Nc4nc5ccccc5[nH]4)c3)n2)cn1 [Example 9, 3-[3-(6-Amino-pyridin-3-yl)-6-oxo-6H-pyridazin-1-ylmethyl]-N-(1H-benzoimidazol-2-yl)-benzamide] | < 100 | < 100
Cc1cc(=O)n(Cc2cccc(C(=O)Nc3nc4ccccc4[nH]3)c2)nc1-c1cccnc1 [Example 10] | – | 100 to 1000
CN(C)Cc1ccc(-c2ccc(=O)n(Cc3cccc(C(=O)Nc4nc5ccccc5[nH]4)c3)n2)cn1 [Example 11, N-(1H-benzo[d]imidazol-2-yl)-3-((3-(6-((dimethylamino)methyl)pyridin-3-yl)-6-oxopyridazin-1(6H)-yl)methyl)benzamide] | 1000 to 5000 | 1000 to 5000
